Source: patent US20110207773A1, “NOVEL PHENYL-QUINOLINE-CARBOXYLIC ACID PYRIDINE DERIVATIVES USEFUL AS MODULATORS OF NICOTINIC ACETYLCHOLINE RECEPTORS” (NEUROSEARCH A/S, priority 2008, published 2011)

Experiments:
[1] = target: T1, wild-type nAChR α7 receptors (Homo sapiens, UniProt P36544); test: Positive modulation of nAChR α7 currents in Xenopus laevis oocytes, two-electrode voltage clamp; type: cell-based; details: nAChR α7 expressed in Xenopus laevis oocytes, clamped at −60 mV, 100 μM acetylcholine; for Emax: (test-control)/control×100%, read-out: calculated EC50 Imax (maximal modulation of the control response); for EC50: test compound 0.01-31.6 μM, read-out: calculated EC50 (positive modulation of acetylcholine-induced current)
T1 construct: expressed in transfected cells; host or cells: Xenopus laevis oocytes
Experimental: In this example the positive modulation of wild-type nAChR α7 receptors by Compounds 4 and 5, representative of the invention, was determined using nAChR α7 receptors heterologously expressed in Xenopus laevis oocytes.
The electrical current through the nAChR α7 channel was measured using conventional two-electrode voltage clamp and nAChR α7 currents were activated by applying pulses of agonist-containing solution onto the nAChR α7 expressing oocyte.
In brief, the oocytes were placed in a recording chambers and continuously super-fused with an Oocyte Ringer (OR) solution containing 90 mM NaCl, 2.5 mM KCl, 2.5 mM CaCl2, 1 mM MgCl2 and 5 mM HEPES (pH adjusted to 7.4). The oocytes were clamped at −60 mV and currents were induced by applying 20 s pulses of 100 μM acetylcholine dissolved in OR. The intervals between the acetylcholine applications were 5 minutes, during which the oocytes were washed with OR. The first three applications were control applications to insure a constant response level of 100 μM acetylcholine. For the subsequent test applications, increasing concentrations (0.01-31.6 μM) of the test compound were applied 30 s before and during the acetylcholine (100 μM) application, which caused a robust increase in the acetylcholine-induced current amplitude.
The positive modulation in the presence of Compound 4 was calculated as (test-control)/control×100% and the concentration response curve for this positive modulation was fitted to the sigmoidal logistic equation: I=Imax/(1+(EC50/[compound])^n), where Imax represents the maximal modulation of the control response, EC50 is the concentration causing a half maximal response, and n is the slope coefficient.

T1 sequence (P36544 23-502): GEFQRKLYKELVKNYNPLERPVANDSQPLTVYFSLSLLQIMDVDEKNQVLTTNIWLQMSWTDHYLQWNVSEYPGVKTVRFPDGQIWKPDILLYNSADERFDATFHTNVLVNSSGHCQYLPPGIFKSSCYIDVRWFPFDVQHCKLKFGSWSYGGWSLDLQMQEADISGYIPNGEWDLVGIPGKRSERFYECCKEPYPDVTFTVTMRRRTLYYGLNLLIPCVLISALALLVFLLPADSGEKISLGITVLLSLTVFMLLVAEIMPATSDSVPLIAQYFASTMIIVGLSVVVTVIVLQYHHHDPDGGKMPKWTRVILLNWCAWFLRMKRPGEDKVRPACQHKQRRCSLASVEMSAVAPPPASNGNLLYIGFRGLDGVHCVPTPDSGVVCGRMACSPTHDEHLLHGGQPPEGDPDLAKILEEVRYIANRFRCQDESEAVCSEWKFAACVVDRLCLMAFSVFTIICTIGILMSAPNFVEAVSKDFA

Row | Compound | melting point [°C] | Emax [1] [%] | EC50 [1] [nM]
1 | COc1ccc(-c2cc(C(=O)Nc3cccc(F)n3)c3cccc(F)c3n2)cc1 [Compound 8, 8-Fluoro-2-(4-methoxy-phenyl)-quinoline-4-carboxylic acid (6-fluoro-pyridin-2-yl)-amide] | 201.8 to 202.8 | – | –
2 | O=C(Nc1cccc(F)n1)c1cc(-c2ccc(O)cc2)nc2c(F)cccc12 [Compound 9, 8-Fluoro-2-(4-hydroxy-phenyl)-quinoline-4-carboxylic acid (6-fluoro-pyridin-2-yl)-amide] | 254 to 256 | – | –
3 | COc1ccc(-c2cc(C(=O)Nc3cccc(F)n3)c3ccccc3n2)cc1OC [Compound 5, 2-(3,4-Dimethoxy-phenyl)-quinoline-4-carboxylic acid (6-fluoro-pyridin-2-yl)-amide] | – | 197 | 1200
4 | COc1ccc(-c2cc(C(=O)Nc3cccc(F)n3)c3ccccc3n2)cc1 [Compound 4, 2-(4-Methoxy-phenyl)-quinoline-4-carboxylic acid (6-fluoro-pyridin-2-yl)-amide] | – | 283 | 3700
5 | O=C(Nc1cccc(F)n1)c1cc(-c2ccc3c(c2)OCCO3)nc2ccccc12 [Compound 13, 2-(2,3-Dihydro-benzo[1,4]dioxin-6-yl)-quinoline-4-carboxylic acid (6-fluoro-pyridin-2-yl)-amide] | 209.9 to 210.6 | – | –
6 | COc1ccc(-c2cc(C(=O)Nc3cccc(F)n3)c3cc(F)ccc3n2)cc1 [Compound 10, 6-Fluoro-2-(4-methoxy-phenyl)-quinoline-4-carboxylic acid (6-fluoro-pyridin-2-yl)-amide] | 161.2 to 162.9 | – | –
7 | Cc1ccc(NC(=O)c2cc(-c3ccc(Br)cc3)nc3ccccc23)nc1 [Compound 7, 2-(4-Bromo-phenyl)-quinoline-4-carboxylic acid (5-methyl-pyridin-2-yl)-amide] | 182.4 to 183.7 | – | –
